The values that follow come from ChEMBL document CHEMBL4673363, “Highly potent, broadly active antifungal agents for the treatment of invasive fungal infections” (Bioorg Med Chem Lett, 2021).

Values after ≈ are worked out from the molar mass of the structure shown. A value given as a limit tells only on which side of the number the result lay.

The nature of assay [1]: Antifungal activity against Mucor ramosissimus ATCC 90286. In kind it is functional.
Assay [2] deals with Aspergillus flavus. Put plainly: Antifungal activity against Aspergillus flavus ATCC 3631. In kind it is functional.
The subject of assay [3] is Fusarium solani. Put plainly: Antifungal activity against Fusarium solani ATCC 58877. Type of assay: functional.
Assay [4] is described as follows: Antifungal activity against Fusarium falciforme ATCC 3636. In kind it is functional.
The subject of assay [5] is Aspergillus fumigatus. Nature of the assay: Antifungal activity against Aspergillus fumigatus ATCC 3626. Type of assay: functional.
The test system of assay [6] is Mucor circinelloides. Nature of the assay: Antifungal activity against Mucor circinelloides ATCC 26579. Type of assay: functional.
Assay [7] deals with Trichophyton. Put plainly: Antifungal activity against Trichophyton after 48 hrs by CLSI-based broth microdilution method. In kind it is functional. A general note: Broth dilution looks for growth in wells or tubes with falling amounts of substance.
The test system of assay [8] is Candida. Put plainly: Antifungal activity against Candida after 48 hrs by CLSI-based broth microdilution method. Type of assay: functional.
The subject of assay [9] is Aspergillus. Nature of the assay: Antifungal activity against Aspergillus assessed as inhibition of fungal growth by broth dilution assay. In kind it is functional, organism-based.
For assay [10], the system named is Candida. Put plainly: Antifungal activity against Candida assessed as inhibition of fungal growth by broth dilution assay. Type of assay: functional, organism-based.
The subject of assay [11] is Rhizopus. Put plainly: Antifungal activity against Rhizopus assessed as inhibition of fungal growth by broth dilution assay. Type of assay: functional, organism-based.

Regarding `N=C(N)N1CC=C(c2ccc(-c3nnc(-c4ccc(C5=CCN(C(=N)N)CC5)cc4)n3C3CCCCC3)cc2)CC1`, the MIC in assay [1] worked out at 1.56 µg/mL (≈ 2.84 µM); in [2], 0.78 µg/mL (≈ 1.42 µM); in assay [3] it was 0.39 µg/mL (≈ 0.709 µM); in [4], 0.2 µg/mL (≈ 0.364 µM); in [5], 0.39 µg/mL (≈ 0.709 µM); in assay [6], 0.39 µg/mL (≈ 0.709 µM).
As to `Cn1c(-c2ccc(C3=CCN(C(=N)N)CC3)cc2)cnc1-c1ccc(C2=CCN(C(=N)N)CC2)cc1`, the MIC in assay [1] is 6.25 µg/mL (≈ 13 µM); in assay [2] it was 0.39 µg/mL (≈ 0.811 µM); in [3], 3.13 µg/mL (≈ 6.51 µM); in assay [4], < 0.1 µg/mL; in [5], 0.2 µg/mL (≈ 0.416 µM); in [6] it was 0.78 µg/mL (≈ 1.62 µM).
Consider `CC(C)(C)c1cc(C(C)(C)C)c2[nH]c(C(C)(C)C)c(C[C@H](NC(=O)[C@@H](N)CCCNC(=N)N)C(=O)N[C@@H](CCCNC(=N)N)C(=O)NCCc3ccccc3)c2c1` [LTX-109], for which the MIC in assay [7] turned out to be 8 µg/mL (≈ 10.2 µM); in assay [8], 4 µg/mL (≈ 5.08 µM).
In the case of `Cc1cc(C2=CCN(C(=N)N)CC2)ccc1-c1nnc(-c2ccc(C3=CCN(C(=N)N)CC3)cc2C)n1C`, the MIC in [1] worked out at 6.25 µg/mL (≈ 12.3 µM); in assay [2] it was 0.39 µg/mL (≈ 0.765 µM); in assay [3] it was 0.2 µg/mL (≈ 0.392 µM); in assay [4], 0.78 µg/mL (≈ 1.53 µM); in assay [5], 0.78 µg/mL (≈ 1.53 µM); in assay [6], 1.56 µg/mL (≈ 3.06 µM).
`Cc1ccc(Oc2ccccc2-c2csc(N=C3NCCCN3)n2)c(C)c1` [ABAFUNGIN]: the MIC in assay [9] (time 48 hrs) and in assay [10] was 0.5 µg/mL (≈ 1.32 µM) each time.
As to `Cn1c(-c2ccc(C3=CCN(C(=N)N)CC3)cc2)nnc1-c1ccc(C2=CCN(C(=N)N)CC2)cc1`, the MIC in [1] is 0.39 µg/mL (≈ 0.81 µM); in assay [2], 0.1 µg/mL (≈ 0.208 µM); in assay [3] it was 0.024 µg/mL (≈ 0.0498 µM); in assay [4] it was 0.024 µg/mL (≈ 0.0498 µM); in assay [5], 0.1 µg/mL (≈ 0.208 µM); in [6] it was 0.2 µg/mL (≈ 0.415 µM).
On to `Cc1cc(-c2nnc(-c3ccc(C4=CCN(C(=N)N)CC4)cc3)o2)ccc1C1=CCN(C(=N)N)CC1`, for which the minimum inhibitory concentration (MIC) was 25 µg/mL (≈ 51.8 µM) in assay [1]; 6.25 µg/mL (≈ 13 µM) in assay [2]; 1.56 µg/mL (≈ 3.23 µM) in assay [3]; 0.39 µg/mL (≈ 0.808 µM) in assay [4]; > 25 µg/mL in assay [5]; 25 µg/mL (≈ 51.8 µM) in [6].
`Cc1cc(C2=CCN(C(=N)N)CC2)ccc1-c1nnc(-c2ccc(C3=CCN(C(=N)N)CC3)cc2)n1C`: the MIC is 6.25 µg/mL (≈ 12.6 µM) in [1]; 0.39 µg/mL (≈ 0.787 µM) in [2]; 0.2 µg/mL (≈ 0.404 µM) in assay [3]; 0.2 µg/mL (≈ 0.404 µM) in assay [4]; 0.2 µg/mL (≈ 0.404 µM) in assay [5]; 3.13 µg/mL (≈ 6.32 µM) in [6].
For `NC(N)=N/N=C/c1ccc(OCc2ccc(Cl)c(Cl)c2)cc1`, the IC50 in [9], in assay [10] and in assay [11] was > 12 µM throughout.
Take `COCCn1c(-c2ccc(C3=CCN(C(=N)N)CC3)cc2)nnc1-c1ccc(C2=CCN(C(=N)N)CC2)cc1`: the minimum inhibitory concentration (MIC) in assay [1] stood at 1.56 µg/mL (≈ 2.97 µM); in assay [2] it was 0.2 µg/mL (≈ 0.38 µM); in [3], 0.05 µg/mL (≈ 0.0951 µM); in [4], 0.05 µg/mL (≈ 0.0951 µM); in assay [5], 0.1 µg/mL (≈ 0.19 µM); in [6] it was 0.39 µg/mL (≈ 0.742 µM).
With `N=C(N)N1CC=C(c2ccc(-c3nnc(-c4ccc(C5=CCN(C(=N)N)CC5)cc4)n3Cc3ccccc3)cc2)CC1`, the MIC in assay [1] was found to be 3.13 µg/mL (≈ 5.61 µM); in assay [2], 1.56 µg/mL (≈ 2.8 µM); in [3], 0.05 µg/mL (≈ 0.0897 µM); in assay [4] it was 0.1 µg/mL (≈ 0.179 µM); in [5] it was 0.39 µg/mL (≈ 0.699 µM); in assay [6], 1.56 µg/mL (≈ 2.8 µM).
For `N=C(N)N1CC=C(c2ccc(-c3nnc(-c4ccc(C5=CCN(C(=N)N)CC5)cc4)o3)cc2)CC1`, the MIC stood at 100 µg/mL (≈ 213 µM) in assay [1]; 3.13 µg/mL (≈ 6.68 µM) in [2]; 6.25 µg/mL (≈ 13.3 µM) in assay [3]; 0.39 µg/mL (≈ 0.832 µM) in [4]; 3.13 µg/mL (≈ 6.68 µM) in assay [5]; 100 µg/mL (≈ 213 µM) in assay [6].
As to `CC[C@@H]([C@H](C)O)n1ncn(-c2ccc(N3CCN(c4ccc(OC[C@@H]5CO[C@@](Cn6cncn6)(c6ccc(F)cc6F)C5)cc4)CC3)cc2)c1=O` [POSACONAZOLE], the MIC in assay [1] was determined as 0.78 µg/mL (≈ 1.11 µM); in assay [2], 0.78 µg/mL (≈ 1.11 µM); in assay [3], 1.56 µg/mL (≈ 2.23 µM); in assay [4] it was 0.78 µg/mL (≈ 1.11 µM); in [5] it was 0.39 µg/mL (≈ 0.557 µM); in assay [6] it was 1.56 µg/mL (≈ 2.23 µM).
For `Cn1c(-c2ccc(CNC(=N)N)cc2)cnc1-c1ccc(CNC(=N)N)cc1`, the MIC in assay [1], in assay [2], in assay [3], in assay [4], in [5] and in assay [6] was > 100 µg/mL throughout.
Regarding `CCn1c(-c2ccc(C3=CCN(C(=N)N)CC3)cc2)nnc1-c1ccc(C2=CCN(C(=N)N)CC2)cc1`, the MIC was 0.78 µg/mL (≈ 1.57 µM) in [1]; < 0.012 µg/mL in [2]; < 0.012 µg/mL in assay [3]; < 0.012 µg/mL in assay [4]; < 0.012 µg/mL in [5]; 0.2 µg/mL (≈ 0.404 µM) in assay [6].
As to `Cn1c(-c2ccc(C3=CCN(C(=N)N)CC3)cc2)nnc1-c1ccc(C2=CCN(C(=N)N)CC2)c(C(F)(F)F)c1`, the MIC in assay [1] stood at 3.13 µg/mL (≈ 5.69 µM); in [2], 0.39 µg/mL (≈ 0.71 µM); in assay [3] it was 0.2 µg/mL (≈ 0.364 µM); in assay [4], 0.2 µg/mL (≈ 0.364 µM); in assay [5], 0.2 µg/mL (≈ 0.364 µM); in assay [6] it was 0.78 µg/mL (≈ 1.42 µM).
As to `Cn1c(-c2ccc(C3CCN(C(=N)N)CC3)cc2)nnc1-c1ccc(C2CCN(C(=N)N)CC2)cc1`, the minimum inhibitory concentration (MIC) in assay [1] is > 100 µg/mL; in assay [2], 1.56 µg/mL (≈ 3.21 µM); in [3], 0.78 µg/mL (≈ 1.61 µM); in assay [4], 0.78 µg/mL (≈ 1.61 µM); in assay [5], 1.56 µg/mL (≈ 3.21 µM); in [6], > 100 µg/mL.
For `C[C@@H]1[C@H](O)[C@@H](C)/C=C/C=C/C=C/C=C/C=C/C=C/C=C/[C@H](O[C@@H]2O[C@H](C)[C@@H](O)[C@H](N)[C@@H]2O)C[C@@H]2O[C@](O)(C[C@@H](O)C[C@@H](O)[C@H](O)CC[C@@H](O)C[C@@H](O)CC(=O)O[C@H]1C)C[C@H](O)[C@H]2C(=O)O` [AMPHOTERICIN B], the MIC in assay [1] was determined as 3.13 µg/mL (≈ 3.39 µM); in [2], 3.13 µg/mL (≈ 3.39 µM); in assay [3], 3.13 µg/mL (≈ 3.39 µM); in assay [4] it was 3.13 µg/mL (≈ 3.39 µM); in assay [5], 3.13 µg/mL (≈ 3.39 µM); in [6], 1.56 µg/mL (≈ 1.69 µM).
For `Cc1cc(-c2nnc(-c3ccc(C4=CCN(C(=N)N)CC4)c(C)c3)n2C)ccc1C1=CCN(C(=N)N)CC1`, the minimum inhibitory concentration (MIC) in assay [1] turned out to be 50 µg/mL (≈ 98.1 µM); in [2], 1.56 µg/mL (≈ 3.06 µM); in assay [3], 0.78 µg/mL (≈ 1.53 µM); in assay [4], 0.78 µg/mL (≈ 1.53 µM); in assay [5] it was 0.78 µg/mL (≈ 1.53 µM); in [6], 6.25 µg/mL (≈ 12.3 µM).
As to `Cn1c(-c2ccc(N3CCN(C(=N)N)CC3)cc2)nnc1-c1ccc(N2CCN(C(=N)N)CC2)cc1`, the MIC in assay [1] is > 100 µg/mL; in [2] it was 0.78 µg/mL (≈ 1.6 µM); in assay [3], 1.56 µg/mL (≈ 3.2 µM); in assay [4] it was 0.39 µg/mL (≈ 0.8 µM); in assay [5] it was 0.39 µg/mL (≈ 0.8 µM); in assay [6] it was > 100 µg/mL.
Consider `Cn1c(-c2ccc(C3=CCN(C(=N)N)C3)cc2)nnc1-c1ccc(C2=CCN(C(=N)N)C2)cc1`, for which the MIC in assay [1] is 6.25 µg/mL (≈ 13.8 µM); in assay [2], 0.39 µg/mL (≈ 0.86 µM); in [3], 0.2 µg/mL (≈ 0.441 µM); in assay [4] it was 0.05 µg/mL (≈ 0.11 µM); in assay [5] it was 0.2 µg/mL (≈ 0.441 µM); in [6], 0.78 µg/mL (≈ 1.72 µM).
Regarding `Cc1cc(C2=CCN(C(=N)N)CC2)ccc1-c1nnc(-c2ccc(C3=CCN(C(=N)N)CC3)cc2)o1`, the MIC in [1] was found to be 25 µg/mL (≈ 51.8 µM); in assay [2] it was 0.31 µg/mL (≈ 0.642 µM); in [3], 0.78 µg/mL (≈ 1.62 µM); in [4], 0.2 µg/mL (≈ 0.414 µM); in assay [5], 0.78 µg/mL (≈ 1.62 µM); in assay [6], 12.5 µg/mL (≈ 25.9 µM).

Broadly, the MIC is the least concentration at which growth counts as inhibited. What is called IC50 is the point on the concentration scale where inhibition reaches its midpoint.
